From patent US20060234909A1, “Compositions and methods for increasing drug efficiency” (priority 2003, published 2006)
Primed or numbered codes have the meaning given here. * marks the point of attachment. 10Ca = carbamate linkage conjugating the peptide-PEG to paclitaxel at C10; 10Ca‑PXL = paclitaxel conjugated at C10 via a carbamate; 3Am‑VBL = vinblastine (VBL) conjugate; 3′Alk‑MAL(9) = not defined here; ALK(6) = not defined here; MAL(9) = not defined here; 3′Alk = not defined here; PEG(11) = PEG(11) linker; PEG(29) = PEG(29) linker; 10Es = not defined here; 3Am = not defined here; Cbz = O=C(OCc1ccccc1)*; PEG(13) = PEG13 linker; Boc = CC(C)(C)OC(=O)*; Piv = CC(C)(C)C(=O)*; OBn = c1ccc(CO*)cc1; DOX = doxorubicin; VBL = vinblastine; PXL = paclitaxel

Assays:
[1] = system: HT-29 colorectal carcinoma; experiment: Cytotoxicity assay (monolayer), HT-29; format: cell-based; conditions: HT29, ML (monolayer); read-out: HT29 (EC50 Ave) ML;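 note: monolayer cultures tested in triplicate, compound exposure for three days against DMSO vehicle controls, EC50 fitted from dose-response curves and averaged across all tests and lots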
HUVEC = experiment: Cytotoxicity assay (monolayer), HUVEC; format: cell-based; conditions: ML (monolayer), read-out: HUVEC (EC50 Ave) ML
[2] = system: Normal human foreskin fibroblasts (HFF); conditions: read-out: HFF (EC50 Ave) ML; HFF, ML (monolayer)
tubulin = experiment: Fluorescence-based tubulin polymerization assay (MPA; enhancement for paclitaxel, inhibition for vinblastine); format: biochemical
Description: Drug-linker constructs may further be screened using functional assays predictive of biological activity. […] Tubulin assembly or inhibition thereof may be monitored by fluorescence using the CytoDYNAMIX Screen™ 10 kit available from Cytoskeleton (1830 S. Acoma St., Denver, Colo.). […] Emission is monitored at 405 nm with excitation at 360 nm. […] Tubulin assembly or inhibition may also be monitored by light scattering which is approximated by the apparent absorption at 350 nm. For paclitaxel drug conjugates BSA is employed to prevent aggregation and glycerol, which is a tubulin polymerization enhancer, is omitted from the kit to increase the signal to noise ratio.
The assay kit (#BK011) was purchased from Cytoskeleton (Denver, Colo.). The assays were carried out according to the manufacturer's instructions, except that 1 mg/ml BSA (Sigma #A3059) was included in all assays. […] Parent drugs and conjugates were tested at 0.75, 1.5, 3 and 10 micromolar final concentration and results represent a comparison of conjugate and parent drug curves obtained from the linear range of the dose responses.
(±SD) represent the average of all tests carried out for all lots of a given compound.

MCF-7 breast carcinoma = experiment: Cytotoxicity assay (monolayer), MCF-7; format: cell-based; conditions: MCF7, ML (monolayer); read-out: MCF7 (EC50 Ave) ML;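 note: cells treated 72 h with 6-8 compound doses versus DMSO vehicle controls, EC50 fitted by 4-parameter dose-response curves, averaged across all tests and lots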
Human Src = molecular target: T1, Human Src (Homo sapiens, UniProt P12931); experiment: Src kinase assay (PKLight ATP utilization, substrate phosphorylation as % of parent peptide); format: biochemical; conditions: for Src (Qual. Act.): DOX-Src kinase substrate conjugates
T1 construct: purchased Upstate (Charlottesville, Va.) 14-326
Description: Another test may involve monitoring the consumption of ATP. For example, ATP concentrations at time 0 or after 4 hour incubation may be monitored by luciferase reaction (PKLight kit obtained from Cambrex Corporation, One Meadowlands Plaza, East Rutherford, N.J. 07073), which generate a luminescence readout in the presence of ATP. Assays are initiated by mixing a kinase and a peptide in the presence of 40 μM ATP. After 4 hour of incubation at 30° C., PKLight reagent is added and mixed well, and luminescence readout measured. The rate of peptide phosphorylation is then directly related to the rate of decrease in the observed luminescence. Based on the first test, linkers of appropriate lengths and peptides with an effective amount of kinase activity which may be expected to be retained in the drug conjugate may be found.
Human Src (#14-326) and Akt (#14-276) kinases were purchased from Upstate (Charlottesville, Va.). Kinase reactions were carried out in 50 μl kinase reaction cocktail (25 mM Tris-HCl, pH 7.5, 5 μM β-glycerophosphate, 2 mM DTT, 0.1 mM Na3VO4, 10 mM MgCl2, 1 mg/ml BSA, […], 0.5 to 1.0 units enzyme). Substrates (peptide or drug-peptide conjugate in […]) were added (25, 50 and 100 μM) and the reaction was incubated for 2-5 hours at 30° C. PKLight reagent (23 μl) (Cambrex BioSciences, Rockland, Me.) was mixed with […] of the above kinase reaction and ATP utilization relative to no substrate and no ATP controls was determined by measuring luminescence with a SpectraMax Gemini EM plate reader (Molecular Devices, Sunnyvale, Calif.). Peptide substrates for Src and Akt have been described. For examples, see Lou et al. Letters in Peptide Science, 2, 289-296 (1995); Lou et al. Bioorganic & Medicinal Chemistry, 4, 677-682 (1996); Alessi et al. FEBS Letters, 399, 333-338 (1996). Substrate phosphorylation potential was determined from the linear portion of the substrate concentration dose response as a percentage of the activity observed with the parent peptide used for drug conjugation.

| Substance | EC50 [1] | EC50 (HUVEC) | EC50 [2] | Ave. MPA Act. (tubulin) | EC50 (MCF-7 breast carcinoma) | Average src kinase activity (Human Src) | Src (Qual. Act.) (Human Src) |
| --- | --- | --- | --- | --- | --- | --- | --- |
| Pv-EYIYGSFR-PEG(11)-3Am-VBL (Piv-EYIYGSFR-{PEG(11)-3Am‑VBL}) | > 100 nM | > 100 nM | > 100 nM | C (C>80) | > 100 nM | C (C>40) | – |
| BOC-YI(phospho)YGSFK(BOC)-PEG(11)-3Am-VBL (Boc-YIYGSFK(Boc)-{PEG(11)-3Am-VBL}; reading uncertain; also: phospho at I2 as written: I(phospho), printed as BOC-YI(phospho)YGSFK(BOC)-PEG(11)-3Am-VBL) | – | > 100 nM | 20 to 100 nM | C (C>80) | > 100 nM | C (C>40) | – |
| Ac-YIYGSFK-PEG(13)-10Ca-PXL (N-acetyl; PEG(13) linker; paclitaxel conjugate) | > 100 nM | > 100 nM | – | B (B=50-80) | > 100 nM | C (C>40) | – |
| CBz-YIYGSFK(BOC)-PEG(11)-3Am-VBL (Cbz-YIYGSFK(Boc)-{PEG(11)-3Am-VBL}; reading uncertain; also: printed as CBz-YIYGSFK(BOC)-PEG(11)-3Am-VBL) | > 100 nM | > 100 nM | – | C (C>80) | > 100 nM | A (A<20) | – |
| Pv-RLVAYEGYV-PEG(11)-3Am-VBL (Piv-RLVAYEGYV-{PEG(11)-3Am‑VBL}) | > 100 nM | > 100 nM | > 100 nM | B (B=50-80) | > 100 nM | – | – |
| Ac-E(Bzl)YIYGSFK(CBz)-PEG(13)-10Ca-PXL (Ac-E(OBn)YIYGSFK(Cbz)-{PEG(13)-10Ca-PXL}) | – | – | – | A (A<50) | – | Zero | – |
| CBz-GIYWHHY-PEG(11)-3Am-VBL (N-CBz; PEG(11) linker; vinblastine conjugate) | > 100 nM | – | – | B (B=50-80) | > 100 nM | A (A<20) | – |
| BOC-YIYGSFS-PEG(11)-3Am-VBL (N-BOC; PEG(11) linker; vinblastine conjugate) | > 100 nM | > 100 nM | > 100 nM | C (C>80) | > 100 nM | C (C>40) | – |
| H-YIYGSFK-ALK(6)-10Es-PXL (H-YIYGSFK-{ALK(6)-10Es-PXL}; reading uncertain) | > 100 nM | – | > 100 nM | B (B=50-80) | > 100 nM | C (C>40) | – |
| Ac-YIFGSFK-PEG(11)-3Am-VBL (N-acetyl; PEG(11) linker; vinblastine conjugate) | > 100 nM | > 100 nM | > 100 nM | B (B=50-80) | > 100 nM | C (C>40) | – |
| Pv-GRSRTSSFAEG-PEG(13)-10Ca-PXl (Piv-GRSRTSSFAEG-{PEG(13)-10Ca‑PXL}; also: 2 TFA salt) | – | – | – | C (C>80) | – | – | – |
| CBz-YIYGSFK(CBz)-ALK(6)-10Es-PXL (Cbz-YIYGSFK(Cbz)-{ALK(6)-10Es-PXL}; reading uncertain; also: printed as CBz-YIYGSFK(CBz)-ALK(6)-10Es-PXL) | > 100 nM | – | – | – | 20 to 100 nM | Zero | – |
| CBz-YIFGSFK-PEG(11)-3Am-VBL (N-CBz; PEG(11) linker; vinblastine conjugate) | > 100 nM | > 100 nM | > 100 nM | B (B=50-80) | > 100 nM | A (A<20) | – |
| Ac-EYIYGSFK(CBz)-PEG(13)-10Ca-PXL (Ac-EYIYGSFK(Cbz)-{PEG(13)-10Ca-PXL}) | > 100 nM | > 100 nM | – | A (A<50) | > 100 nM | B (B=20-40) | – |
| H-GIYWHHY-PEG(29)-3Am-VBL (H-GIYWHHY-{PEG(29)-3Am-VBL}; reading uncertain) | – | > 100 nM | > 100 nM | C (C>80) | > 100 nM | C (C>40) | – |
| Ac-EYIFGSFK-PEG(13)-10Ca-PXL (N-acetyl, PEG13, paclitaxel conjugate) | > 100 nM | > 100 nM | – | B (B=50-80) | > 100 nM | Zero | – |
| BOC-GIYWHHY-PEG(29)-3Am-VBL (N-BOC; PEG(29) linker; vinblastine conjugate) | – | > 100 nM | > 100 nM | B (B=50-80) | > 100 nM | A (A<20) | – |
| CBz-YIYGSFK-3′Alk-MAL(9)-DOX (Cbz-YIYGSFK-{3′Alk-MAL(9)-DOX}; reading uncertain; also: printed as CBz-YIYGSFK-3′Alk-MAL(9)-DOX) | – | > 100 nM | – | – | > 100 nM | – | C (C>40) |
| BOC-GIYWHHY-PEG(11)-3Am-VBL (N-BOC; PEG(11) linker; vinblastine conjugate) | > 100 nM | – | – | B (B=50-80) | > 100 nM | A (A<20) | – |
| H-YIYGSFK-3′Alk-MAL(9)-DOX (H-YIYGSFK-{3′Alk-MAL(9)-DOX}; reading uncertain) | – | – | > 100 nM | – | > 100 nM | – | C (C>40) |
| Ac-EYIYGSFK-3′Alk-MAL(9)-DOX (Ac-EYIYGSFK-{3′Alk‑MAL(9)-DOX}; reading uncertain; also: printed as Ac-EYIYGSFK-3′Alk-MAL(9)-DOX) | – | > 100 nM | > 100 nM | – | > 100 nM | – | C (C>40) |
| Pv-RLVAYEGYV-PEG(13)-10Ca-PXL (Piv-RLVAYEGYV-{PEG(13)-10Ca‑PXL}) | > 100 nM | > 100 nM | > 100 nM | A (A<50) | > 100 nM | – | – |
| Ac-YIYGSFK-3′Alk-MAL(9)-DOX (Ac-YIYGSFK-{3′Alk-MAL(9)-DOX}; reading uncertain; also: printed as Ac-YIYGSFK-3′Alk-MAL(9)-DOX) | – | – | – | – | > 100 nM | – | C (C>40) |
